Test results from ChEMBL document CHEMBL5543168, “Discovery of Urea Derivatives of Celastrol as Selective Peroxiredoxin 1 Inhibitors against Colorectal Cancer Cells” (J Med Chem, 2024).
pIC50: −log10 of the molar value.

Experiments:
Peroxiredoxin-1 = biological target: T1, Peroxiredoxin-1 (Homo sapiens, UniProt Q06830); assay: Inhibition of recombinant PRDX1 (unknown origin) using H2O2 as substrate preincubated for 0.5 hrs followed by substrate addition by TRX-TrxR-NADPH coupling assay
T1 sequence (Q06830 whole entry): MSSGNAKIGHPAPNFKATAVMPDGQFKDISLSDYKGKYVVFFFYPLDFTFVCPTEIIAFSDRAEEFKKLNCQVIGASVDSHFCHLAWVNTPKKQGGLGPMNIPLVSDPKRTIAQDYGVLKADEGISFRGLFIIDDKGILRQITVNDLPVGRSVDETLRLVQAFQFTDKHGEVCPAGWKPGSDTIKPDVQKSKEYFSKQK

HCT-116 = assay: Inhibition of cell viability in human HCT-116 cells incubated for 72 hrs by Cell Titer Glo assay; assay type: functional, cell-based; details: HCT-116, 72 h
SW-620 [1] = assay: Inhibition of cell viability in human SW620 cells incubated for 72 hrs by Cell Titer Glo assay; assay type: functional, cell-based; details: SW-620, 72 h
[2] = Acute toxicity in C57BL/[…] 6J mouse assessed as pathological change in spleen at 20 mg/kg, ip measured for 2 weeks by H and E staining based analysis; assay type: organism-based; details: in vivo, 336 h
SW-620 [3] = assay: cells; details: Homo sapiens, SW-620, 48 h, read-out: Activity
Description: Induction of apoptosis in human SW620 cells assessed as viable cells at 2 uM incubated for 48 hrs by Annexin V-FITC/PI staining based flow cytometry (Rvb = 90.7 %)

SW-620 [4] = assay: cells; details: Homo sapiens, SW-620, 48 h, read-out: Activity; remark: listed apart in the source
Description: Induction of apoptosis in human SW620 cells assessed as viable cells at 1 uM incubated for 48 hrs by Annexin V-FITC/PI staining based flow cytometry (Rvb = 90.7 %)

SW-620 [5] = assay: cells; details: Homo sapiens, SW-620, 48 h, read-out: Activity; remark: listed apart in the source
Description: Induction of apoptosis in human SW620 cells assessed as viable cells at 0.5 uM incubated for 48 hrs by Annexin V-FITC/PI staining based flow cytometry (Rvb = 90.7 %)

[6] = Acute toxicity in C57BL/[…] 6J mouse assessed as pathological change in kidney at 20 mg/kg, ip measured for 2 weeks by H and E staining based analysis; assay type: organism-based; details: in vivo, 336 h
[7] = Toxicity in BALB/c nude mouse xenografted with human SW620 cells assessed as body weight loss at 2 mg/kg, ip qd for 7 days; assay type: organism-based, SW-620; details: in vivo, 168 h, time 7 day
[8] = Acute toxicity in C57BL/[…] 6J mouse assessed as pathological change in heart at 20 mg/kg, ip measured for 2 weeks by H and E staining based analysis; assay type: organism-based; details: in vivo, 336 h
SW-620 [9] = assay: Antitumor activity against human SW620 cells xenografted in BALB/c nude mouse at 2 mg/kg, ip qd for 16 days relative to control; assay type: functional; details: SW-620, 384 h, time 16 day, read-out: TGI
[10] = Acute toxicity in C57BL/[…] 6J mouse assessed as animal death at 20 mg/kg, ip measured for 2 days; assay type: organism-based; details: in vivo, 48 h, time 2 day
[11] = Acute toxicity in C57BL/[…] 6J mouse assessed as pathological change in liver at 20 mg/kg, ip measured for 2 weeks by H and E staining based analysis; assay type: organism-based; details: in vivo, 336 h

Structure (SMILES)	pIC50 (Peroxiredoxin-1)	pIC50 (HCT-116)	pIC50 (SW-620 [1])	other results
CCOC(=O)C1(NC(=O)N[C@]2(C)CC[C@]3(C)CC[C@]4(C)C5=CC=C6C(=CC(=O)C(O)=C6C)[C@]5(C)CC[C@@]4(C)[C@@H]3C2)CC1	6.44	6.19	6.46	
COC(=O)[C@H](C)NC(=O)N[C@]1(C)CC[C@]2(C)CC[C@]3(C)C4=CC=C5C(=CC(=O)C(O)=C5C)[C@]4(C)CC[C@@]3(C)[C@@H]2C1	6.31	6.10	6.48	
CC1=C(O)C(=O)C=C2C1=CC=C1[C@@]2(C)CC[C@@]2(C)[C@@H]3C[C@](C)(NC(=O)NC(CO)CO)CC[C@]3(C)CC[C@]12C	6.35	5.57	5.72	
CC1=C(O)C(=O)C=C2C1=CC=C1[C@@]2(C)CC[C@@]2(C)[C@@H]3C[C@](C)(NC(=O)N[C@H](C)CO)CC[C@]3(C)CC[C@]12C	6.28	6.08	6.22	
COC(=O)[C@@H]1C[C@@H](O)CN1C(=O)N[C@]1(C)CC[C@]2(C)CC[C@]3(C)C4=CC=C5C(=CC(=O)C(O)=C5C)[C@]4(C)CC[C@@]3(C)[C@@H]2C1	6.44	6.36	6.59	
COC(=O)[C@H](CCCCNC(=O)OC(C)(C)C)NC(=O)N[C@]1(C)CC[C@]2(C)CC[C@]3(C)C4=CC=C5C(=CC(=O)C(O)=C5C)[C@]4(C)CC[C@@]3(C)[C@@H]2C1	6.40	6.39	6.48	
CC1=C(O)C(=O)C=C2C1=CC=C1[C@@]2(C)CC[C@@]2(C)[C@@H]3C[C@](C)(C(=O)O)CC[C@]3(C)CC[C@]12C [CELASTROL]		5.85	6.17	Activity [2]: Toxic; viability at 2 µM (SW-620 [3]): 27.4%; viability at 1 µM (SW-620 [4]): 84.2%; viability at 0.5 µM (SW-620 [5]): 87.4%; Activity [6]: Toxic; Activity [7]: Toxic; Activity [8]: Toxic; inhibition in vivo at 2 mg/kg (SW-620 [9]): 28%; Activity [10]: Toxic; Activity [11]: Toxic
COC(=O)[C@@H](NC(=O)N[C@]1(C)CC[C@]2(C)CC[C@]3(C)C4=CC=C5C(=CC(=O)C(O)=C5C)[C@]4(C)CC[C@@]3(C)[C@@H]2C1)C(C)C	6.34	6.47	6.72	
CC1=C(O)C(=O)C=C2C1=CC=C1[C@@]2(C)CC[C@@]2(C)[C@@H]3C[C@](C)(NC(=O)N[C@@H](C)C(N)=O)CC[C@]3(C)CC[C@]12C	6.51	6.25	6.38	
COC(=O)[C@@H]1CCCN1C(=O)N[C@]1(C)CC[C@]2(C)CC[C@]3(C)C4=CC=C5C(=CC(=O)C(O)=C5C)[C@]4(C)CC[C@@]3(C)[C@@H]2C1	6.33	6.64	6.55	
COC(=O)[C@H](CCSC)NC(=O)N[C@]1(C)CC[C@]2(C)CC[C@]3(C)C4=CC=C5C(=CC(=O)C(O)=C5C)[C@]4(C)CC[C@@]3(C)[C@@H]2C1	6.27	5.74	5.85	
CC1=C(O)C(=O)C=C2C1=CC=C1[C@@]2(C)CC[C@@]2(C)[C@@H]3C[C@](C)(NC(=O)NC4(C(=O)O)COC4)CC[C@]3(C)CC[C@]12C	< 4.70	< 4.70	< 4.70	
COC(=O)CNC(=O)N[C@]1(C)CC[C@]2(C)CC[C@]3(C)C4=CC=C5C(=CC(=O)C(O)=C5C)[C@]4(C)CC[C@@]3(C)[C@@H]2C1	6.19	6.08	6.31	
COC(=O)[C@H](Cc1ccc(O)cc1)NC(=O)N[C@]1(C)CC[C@]2(C)CC[C@]3(C)C4=CC=C5C(=CC(=O)C(O)=C5C)[C@]4(C)CC[C@@]3(C)[C@@H]2C1	6.38	6.37	6.66	
COC(=O)[C@H](Cc1c[nH]c2ccccc12)NC(=O)N[C@]1(C)CC[C@]2(C)CC[C@]3(C)C4=CC=C5C(=CC(=O)C(O)=C5C)[C@]4(C)CC[C@@]3(C)[C@@H]2C1	6.47	6.25	6.51	
CC1=C(O)C(=O)C=C2C1=CC=C1[C@@]2(C)CC[C@@]2(C)[C@@H]3C[C@](C)(NC(=O)NC(CO)(CO)CO)CC[C@]3(C)CC[C@]12C	6.30	5.60	5.96	
CC1=C(O)C(=O)C=C2C1=CC=C1[C@@]2(C)CC[C@@]2(C)[C@@H]3C[C@](C)(NC(=O)N[C@H]4CCOC4=O)CC[C@]3(C)CC[C@]12C	6.48	6.17	6.32	
CC1=C(O)C(=O)C=C2C1=CC=C1[C@@]2(C)CC[C@@]2(C)[C@@H]3C[C@](C)(NC(=O)NCCOCCO)CC[C@]3(C)CC[C@]12C	6.39	6.00	6.10	
COC(=O)CC[C@H](NC(=O)N[C@]1(C)CC[C@]2(C)CC[C@]3(C)C4=CC=C5C(=CC(=O)C(O)=C5C)[C@]4(C)CC[C@@]3(C)[C@@H]2C1)C(=O)OC	6.43	6.24	6.46	
COC(=O)C1(NC(=O)N[C@]2(C)CC[C@]3(C)CC[C@]4(C)C5=CC=C6C(=CC(=O)C(O)=C6C)[C@]5(C)CC[C@@]4(C)[C@@H]3C2)COC1	6.42	6.10	6.41	
COC(=O)[C@@H](NC(=O)N[C@]1(C)CC[C@]2(C)CC[C@]3(C)C4=CC=C5C(=CC(=O)C(O)=C5C)[C@]4(C)CC[C@@]3(C)[C@@H]2C1)[C@@H](C)O	6.31	6.10	6.48	
COC(=O)[C@H](CO)NC(=O)N[C@]1(C)CC[C@]2(C)CC[C@]3(C)C4=CC=C5C(=CC(=O)C(O)=C5C)[C@]4(C)CC[C@@]3(C)[C@@H]2C1	6.33	6.13	6.19	
CC1=C(O)C(=O)C=C2C1=CC=C1[C@@]2(C)CC[C@@]2(C)[C@@H]3C[C@](C)(NC(=O)N[C@H]4C[C@H](CO)[C@H](O)C4)CC[C@]3(C)CC[C@]12C	6.34	5.51	5.68	
